Measured values: patent publication US20180273534A1, “PYRAZOLOPYRIDINE SULFONAMIDES AS NEMATICIDES” (BAYER CROPSCIENCE AKTIENGESELLSCHAFT, priority 2014, published 2018)
“And” between values parts separate entries of the source, which are not always exact repeats. Equal entries are not always repeated.

Assays:
Type in all cases: in vivo
Meloidogyne incognita [1] = assay: Meloidogyne incognita test (sand, salad seedlings, gall formation); details: application rate 20 ppm, after 14 days, 100% = no galls, 0% = galls equal to untreated control
Protocol: Meloidogyne Incognita—Test
Solvent: 125.0 parts by weight of acetone
To produce a suitable preparation of active compound, 1 part by weight of active compound is mixed with the stated amount of solvent, and the concentrate is diluted with water to the desired concentration.
Vessels are filled with sand, a solution of the active ingredient, a suspension containing eggs and larvae of the southern root-knot nematode (Meloidogyne incognita) and salad seeds. The salad seeds germinate and the seedlings grow. Galls develop in the roots.
After 14 days the nematicidal activity is determined on the basis of the percentage of gall formation. 100% means no galls were found and 0% means the number of galls found on the roots of the treated plants was equal to that in untreated control plants.

Myzus persicae = Myzus persicae spray test; details: application rate 500 g/ha; after 6 days; sprayed Chinese cabbage leaf disks; 100% = all aphids killed
Protocol: Myzus Persicae—Spray Test
(§1) Solvent: 78.0 parts by weight acetone • 1.5 parts by weight dimethylformamide
(§2) Emulsifier: alkylarylpolyglycol ether
(§3) To produce a suitable preparation of active compound, 1 part by weight of active compound is mixed with the stated amount of solvents and is diluted with water, containing an emulsifier concentration of 1000 ppm, to the desired concentration. Further test concentrations are prepared by dilution with emulsifier containing water.
Chinese cabbage (Brassica pekinensis) leaf disks infected with all instars of the green peach aphid (Myzus persicae), are sprayed with a preparation of the active ingredient of the desired concentration.
After 6 days mortality in % is determined. 100% means all aphids have been killed and 0% means none of the aphids have been killed.

Tetranychus urticae = Tetranychus urticae spray test OP-resistant; details: application rate 500 g/ha, after 6 days, sprayed French bean leaf disks, 100% = all spider mites killed
Protocol: Tetranvechus urticae—spray test OP-resistant
as §1, §2, §3
French bean (Phaseolus vulgaris) leaf disks which are heavily infested with all stages of the two spotted spidermite (Tetranychus urticae), are sprayed with a preparation of the active ingredient of the desired concentration.
After 6 days mortality in % is determined. 100% means all spider mites have been killed and 0% means none of the spider mites have been killed.

Meloidogyne incognita [2] = assay: Meloidogyne incognita test (soil drench, loamy sand, gall formation); details: application rate 8 ppm, after 21 days, salad seedlings, 100% = no galls
Protocol: Meloidogyne incognita—Test
Solvent: 7 parts by weight of dimethylformamide
Emulsifier: 2.5 parts by weight of alkylarylpolyglycolether
To produce a suitable preparation of active compound, 1 part by weight of active compound is mixed with the stated amount of solvent and emulsifier and is diluted with water to the desired concentration. In the calculation of the concentration the soil volume has to be included. […] Further test concentrations are prepared by dilution with water.
The compound solution is poured into pots filled with soil (loamy sand). A suspension containing eggs and larvae of the southern root-knot nematode (Meloidogyne incognita) is added, salad seeds are spread on the soil surface and covered with quartz sand. The salad seeds germinate and the seedlings grow. Galls develop on the roots.
After 21 days the nematicidal activity is determined on the basis of the percentage of gall formation. 100% means no galls were found; 0% means the number of galls found on the roots of the treated plants was equal to that in untreated control plants.

Structure (SMILES)	nematicidal activity on the basis of the percentage of gall formation (Meloidogyne incognita [1])	further results
CS(=O)(=O)NC(=O)c1cc2c(Cl)cc(C(F)(F)F)cn2n1 [Example I-15]	90%	mortality (Myzus persicae): 100%; mortality (Tetranychus urticae): 85%
O=C(NS(=O)(=O)c1cc(Cl)ccc1Cl)c1cc2cc(Cl)cc(Cl)n2n1 [Example I-47]		nematicidal activity on the basis of the percentage of gall formation (Meloidogyne incognita [2]): 80%
O=C(NS(=O)(=O)c1ccccc1Cl)c1cc2cc(Cl)cc(Cl)n2n1 [Example I-46]	90%	mortality (Myzus persicae): 90%
COc1ccc(Cl)c(S(=O)(=O)NC(=O)c2cc3cc(C(F)(F)F)cc(Cl)n3n2)c1 [Example I-23]	100%	
COc1ccc(Cl)c(S(=O)(=O)NC(=O)c2cc3c(Cl)cc(C(F)(F)F)cn3n2)c1 [Example I-3]	100% and 90%	
CCS(=O)(=O)NC(=O)c1cc2c(Cl)cc(C(F)(F)F)cn2n1 [Example I-16]	100%	
O=C(NS(=O)(=O)c1ccccc1C(F)(F)F)c1cc2c(Cl)cc(C(F)(F)F)cn2n1 [Example I-4]	90%	
CCOc1ccc(Cl)c(S(=O)(=O)NC(=O)c2cc3cc(C(F)(F)F)cc(Cl)n3n2)c1 [Example I-44]	90%	
